{"source": "patent US20250195517A1", "about": "“TREATMENT OF INTRACRANIAL HEMORRHAGE” (ImmunoChem Therapeutics, LLC, priority 2022, published 2025)", "tested_on": "animal models of acute brain injuries such as intracranial hemorrhage", "assay": "animal models of acute brain injuries such as intracranial hemorrhage", "format": "in vivo", "description": "MW189 is a novel small molecule drug candidate developed as a selective suppressor of disease- and injury-induced proinflammatory cytokine overproduction associated with destructive neuroinflammation/synaptic dysfunction cycles. […] The investigators seek to establish if these targets are modified in humans with intracranial hemorrhage."}
{"smiles": "c1ccc(-c2cc(-c3ccncc3)c(N3CCN(c4ncccn4)CC3)nn2)cc1", "note": "[MW189]", "values": [{"measurement": "cerebral edema", "value": "reduces cerebral edema"}, {"measurement": "functional and cognitive performance", "value": "improves functional and cognitive performance"}, {"measurement": "neuroinflammation", "value": "attenuates neuroinflammation"}]}
